Test results reported in US8440708B2, “Triazole-substituted arylamides as P2X3 and P2X2/3 antagonists” (Roche Palo Alto LLC, priority 2007, dated 2013).
Where two headings read alike, the source gives them in different places.

What was measured:
rat P2X3 receptor = target: T1, rat P2X3 receptor (Rattus norvegicus, UniProt P49654); test: P2X3/P2X2/3 FLIPR (Fluorometric Imaging Plate Reader) Assay, P2X3; format: cell-based; conditions: for Ki: CHO-K1 cells transfected with rat P2X3, agonist α,β-meATP 1 μM, Table 1, read-out: P2X3 pKi (converted)
T1 construct: expressed in transfected cells; host or cells: CHO-K1
T1 sequence (P49654 1-397): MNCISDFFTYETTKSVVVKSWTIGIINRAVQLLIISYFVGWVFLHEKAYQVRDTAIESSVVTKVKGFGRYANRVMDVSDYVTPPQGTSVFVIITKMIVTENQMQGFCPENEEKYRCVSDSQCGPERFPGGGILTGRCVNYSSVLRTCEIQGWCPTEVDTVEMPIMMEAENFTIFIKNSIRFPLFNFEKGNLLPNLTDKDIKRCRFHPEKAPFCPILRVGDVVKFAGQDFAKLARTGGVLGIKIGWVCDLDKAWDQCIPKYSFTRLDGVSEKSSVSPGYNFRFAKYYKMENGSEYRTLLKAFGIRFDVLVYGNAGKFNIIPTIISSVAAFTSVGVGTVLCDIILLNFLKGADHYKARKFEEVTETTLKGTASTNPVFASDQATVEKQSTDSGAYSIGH
Method: (§1) P2X3/P2X2/3 FLIPR (Fluorometric Imaging Plate Reader) Assay
(§2) CHO-K1 cells were transfected with cloned rat P2X3 or human P2X2/3 receptor subunits and passaged in flasks. 18-24 hours before the FLIPR experiment, cells were released from their flasks, centrifuged, and resuspended in nutrient medium at 2.5×10^5 cells/ml. The cells were aliquoted into black-walled 96-well plates at a density of 50,000 cells/well and incubated overnight in 5% CO2 at 37° C. On the day of the experiment, cells were washed in FLIPR buffer (calcium- and magnesium-free Hank's balanced salt solution, 10 mM HEPES, 2 mM CaCl2, 2.5 mM probenecid; FB). Each well received 100 μl FB and 100 μl of the fluorescent dye Fluo-3 AM [2 μM final conc.]. After a 1 hour dye loading incubation at 37° C., the cells were washed 4 times with FB, and a final 75 μl/well FB was left in each well.
(§3) Test compounds (dissolved in DMSO at 10 mM and serially diluted with FB) or vehicle were added to each well (25 μl of a 4× solution) and allowed to equilibrate for 20 minutes at room temperature. The plates were then placed in the FLIPR and a baseline fluorescence measurement (excitation at 488 nm and emission at 510-570 nm) was obtained for 10 seconds before a 100 μl/well agonist or vehicle addition. The agonist was a 2× solution of α,β-meATP producing a final concentration of 1 μM (P2X3) or 5 μM (P2X2/3). Fluorescence was measured for an additional 2 minutes at 1 second intervals after agonist addition. A final addition of ionomycin (5 μM, final concentration) was made to each well of the FLIPR test plate to establish cell viability and maximum fluorescence of dye-bound cytosolic calcium. Peak fluorescence in response to the addition of α,β-meATP (in the absence and presence of test compounds) was measured and inhibition curves generated using nonlinear regression. PPADS, a standard P2X antagonist, was used as a positive control.

human P2X2/3 receptor = target: T2, human P2X2/3 receptor (Homo sapiens, UniProt P56373+Q9UBL9); test: P2X3/P2X2/3 FLIPR (Fluorometric Imaging Plate Reader) Assay, P2X2/3; format: cell-based
T2 construct: expressed in transfected cells; host or cells: CHO-K1
T2 sequence (Q9UBL9 1-471): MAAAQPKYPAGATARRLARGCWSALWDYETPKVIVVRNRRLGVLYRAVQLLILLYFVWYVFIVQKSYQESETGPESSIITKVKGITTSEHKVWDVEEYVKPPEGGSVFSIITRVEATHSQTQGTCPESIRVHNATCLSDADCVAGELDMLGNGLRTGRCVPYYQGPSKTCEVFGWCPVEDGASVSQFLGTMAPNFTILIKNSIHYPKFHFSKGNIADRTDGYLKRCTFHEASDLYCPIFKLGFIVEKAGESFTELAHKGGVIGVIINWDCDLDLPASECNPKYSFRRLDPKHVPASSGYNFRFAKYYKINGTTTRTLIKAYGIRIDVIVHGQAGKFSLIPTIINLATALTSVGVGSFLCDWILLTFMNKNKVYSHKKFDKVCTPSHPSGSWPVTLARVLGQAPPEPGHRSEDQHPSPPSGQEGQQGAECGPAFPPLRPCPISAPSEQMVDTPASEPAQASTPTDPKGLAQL
T2 sequence (P56373 1-397): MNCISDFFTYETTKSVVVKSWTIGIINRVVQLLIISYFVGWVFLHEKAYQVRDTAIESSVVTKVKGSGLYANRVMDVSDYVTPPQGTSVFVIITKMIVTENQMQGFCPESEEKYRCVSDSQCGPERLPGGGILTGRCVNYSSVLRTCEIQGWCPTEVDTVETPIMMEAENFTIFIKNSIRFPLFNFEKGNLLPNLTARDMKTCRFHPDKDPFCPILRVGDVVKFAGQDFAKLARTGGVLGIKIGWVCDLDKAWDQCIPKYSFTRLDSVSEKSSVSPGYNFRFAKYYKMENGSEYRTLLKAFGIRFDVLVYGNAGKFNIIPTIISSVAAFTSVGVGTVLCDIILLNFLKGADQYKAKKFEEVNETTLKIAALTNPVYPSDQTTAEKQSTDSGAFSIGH
Method: as §1, §2, §3

[1] = CHO-K1 cells transfected with human P2X2/3, agonist α,β-meATP 5 μM, Table 1, read-out: P2X2/3 pKi (converted)

SMILES | Ki (rat P2X3 receptor) [nM] | Ki (human P2X2/3 receptor; [1]) [nM] | IC50 (rat P2X3 receptor; text b666, CHO-K1 cells, α,β-meATP 1 μM, read-out: pIC50 for the P2X3 receptor (converted)) [nM] | Ki (human P2X2/3 receptor; text b666, CHO-K1 cells, α,β-meATP 5 μM, read-out: pKi for the P2X2/3 receptor (converted)) [nM]
Cc1ccc(-c2cc(C(=O)NC(C)CO)cc(-n3ncnc3C(C)C)c2)cc1 (stereo not drawn) [Compound 16, 5-(5-Isopropyl-[1,2,4]triazol-1-yl)-4′-methyl-biphenyl-3-carboxylic acid (2-hydroxy-1-methyl-ethyl)-amide] | 3.55 | 295 |  | 
Cc1ccc(-c2cc(C(=O)N[C@@H](C)CO)cc(-n3ncnc3C(C)C)c2)cc1 [Compound 17, 5-(5-Isopropyl-[1,2,4]triazol-1-yl)-4′-methyl-biphenyl-3-carboxylic acid ((S)-2-hydroxy-1-methyl-ethyl)-amide] | 2.88 | 141 |  | 
Cc1ccc(-c2cc(C(=O)NC(C)c3cnccn3)cc(-n3cnnc3C(C)C)c2)cc1 (stereo not drawn) [Compound 19] | 5.89 | 1290 |  | 
COC[C@@H](C)NC(=O)c1cc(-c2ccc(C)cc2)cc(-n2cnnc2C(C)C)c1 [Compound 20, 5-(3-Isopropyl-[1,2,4]triazol-4-yl)-4′-methyl-biphenyl-3-carboxylic acid ((R)-2-methoxy-1-methyl-ethyl)-amide] | 372 | 10000 |  | 
Cc1ccc(-c2cc(C(=O)N[C@@H](C)CO)cc(-n3cnnc3C(C)C)c2)cc1 [Compound 21, 5-(3-Isopropyl-[1,2,4]triazol-4-yl)-4′-methyl-biphenyl-3-carboxylic acid ((S)-2-hydroxy-1-methyl-ethyl)-amide] | 977 | 10000 |  | 
Cc1ccc(-c2cc(C(=O)NC(C)CO)cc(-n3nncc3C(C)C)c2)c(F)c1 (stereo not drawn) [Compound 23, 2′-Fluoro-5-(5-isopropyl-[1,2,3]triazol-1-yl)-4′-methyl-biphenyl-3-carboxylic acid (2-hydroxy-1-methyl-ethyl)-amide] | 5.75 | 355 |  | 
Cc1ccc(-c2cc(C(=O)N[C@@H](C)CO)cc(-n3nncc3C(C)C)c2)c(F)c1 [Compound 24, 2′-Fluoro-5-(5-isopropyl-[1,2,3]triazol-1-yl)-4′-methyl-biphenyl-3-carboxylic acid ((S)-2-hydroxy-1-methyl-ethyl)-amide] | 3.31 | 324 |  | 
Cc1ccc(-c2cc(C(=O)NC(C)CO)cc(-n3cnnc3C(C)C)c2)cc1 (stereo not drawn) [Compound 26, 5-(3-Isopropyl-[1,2,4]triazol-4-yl)-4′-methyl-biphenyl-3-carboxylic acid (2-hydroxy-1-methyl-ethyl)-amide] | 155 | 10000 |  | 
Cc1ccc(-c2cc(C(=O)NC(C)CO)cc(-n3nc(C)nc3C(C)C)c2)cc1 (stereo not drawn) [Compound 28, 5-(5-Isopropyl-3-methyl-[1,2,4]triazol-1-yl)-4′-methyl-biphenyl-3-carboxylic acid (2-hydroxy-1-methyl-ethyl)-amide] | 64.6 | 10000 |  | 
Cc1ccc(-c2cc(C(=O)N[C@@H](C)CO)cc(-n3nc(C)nc3C(C)C)c2)cc1 [Compound 29, 5-(5-Isopropyl-3-methyl-[1,2,4]triazol-1-yl)-4′-methyl-biphenyl-3-carboxylic acid ((S)-2-hydroxy-1-methyl-ethyl)-amide] | 46.8 | 3630 |  | 
Cc1ccc(-c2cc(C(=O)NC(C)c3cnccn3)cc(-n3c(C)nnc3C(C)C)c2)cc1 (stereo not drawn) [Compound 31, 5-(3-Isopropyl-5-methyl-[1,2,4]triazol-4-yl)-4′-methyl-biphenyl-3-carboxylic acid (1-pyrazin-2-yl-ethyl)-amide] | 35.5 | 398 |  | 
COC[C@@H](C)NC(=O)c1cc(-c2ccc(C)cc2)cc(-n2c(C)nnc2C(C)C)c1 [Compound 32, 5-(3-Isopropyl-5-methyl-[1,2,4]triazol-4-yl)-4′-methyl-biphenyl-3-carboxylic acid ((R)-2-methoxy-1-methyl-ethyl)-amide] | 427 | 10000 |  | 
CCn1nncc1-c1cc(C(=O)N[C@H](C)COC)cc(-c2ccc(C)cc2)c1 [Compound 37, 5-(3-Ethyl-3H-[1,2,3]triazol-4-yl)-4′-methyl-biphenyl-3-carboxylic acid ((R)-2-methoxy-1-methyl-ethyl)-amide] | 380 | 6760 |  | 

More lines, now with the values ahead:

Ki (rat P2X3 receptor) [nM] | Ki (human P2X2/3 receptor; [1]) [nM] | IC50 (rat P2X3 receptor; text b666, CHO-K1 cells, α,β-meATP 1 μM, read-out: pIC50 for the P2X3 receptor (converted)) [nM] | Ki (human P2X2/3 receptor; text b666, CHO-K1 cells, α,β-meATP 5 μM, read-out: pKi for the P2X2/3 receptor (converted)) [nM] | SMILES
3.09 | 24 |  |  | Cc1ccc(-c2cc(C(=O)NC(C)c3cnccn3)cc(-n3ncnc3C(C)C)c2)cc1 (stereo not drawn) [Compound 18, 5-(5-Isopropyl-[1,2,4]triazol-1-yl)-4′-methyl-biphenyl-3-carboxylic acid (1-pyrazin-2-yl-ethyl)-amide]
12 | 72.4 |  |  | Cc1ccc(-c2cc(C(=O)NC(C)c3cnccn3)cc(-n3nncc3C(C)C)c2)c(F)c1 (stereo not drawn) [Compound 25, 2′-Fluoro-5-(5-isopropyl-[1,2,3]triazol-1-yl)-4′-methyl-biphenyl-3-carboxylic acid (1-pyrazin-2-yl-ethyl)-amide]
4.57 | 135 |  |  | Cc1ccc(-c2cc(C(=O)NC(C)c3cnccn3)cc(-n3nc(C)nc3C(C)C)c2)cc1 (stereo not drawn) [Compound 30, 5-(5-Isopropyl-3-methyl-[1,2,4]triazol-1-yl)-4′-methyl-biphenyl-3-carboxylic acid (1-pyrazin-2-yl-ethyl)-amide]
4.07 | 1380 |  |  | COC[C@@H](C)NC(=O)c1cc(-c2ccc(C)cc2F)cc(-n2ncnc2C(C)C)c1 [Compound 33, 2′-Fluoro-5-(5-isopropyl-[1,2,4]triazol-1-yl)-4′-methyl-biphenyl-3-carboxylic acid ((R)-2-methoxy-1-methyl-ethyl)-amide]
3.24 | 427 |  |  | Cc1ccc(-c2cc(C(=O)NC(C)CO)cc(-n3ncnc3C(C)C)c2)c(F)c1 (stereo not drawn) [Compound 34, 2′-Fluoro-5-(5-isopropyl-[1,2,4]triazol-1-yl)-4′-methyl-biphenyl-3-carboxylic acid (2-hydroxy-1-methyl-ethyl)-amide]
1.7 | 417 | ~1.7 |  | Cc1ccc(-c2cc(C(=O)N[C@@H](C)CO)cc(-n3ncnc3C(C)C)c2)c(F)c1 [Compound 35, 2′-Fluoro-5-(5-isopropyl-[1,2,4]triazol-1-yl)-4′-methyl-biphenyl-3-carboxylic acid ((S)-2-hydroxy-1-methyl-ethyl)-amide]
3.72 | 22.9 |  | ~22.9 | Cc1ccc(-c2cc(C(=O)NC(C)c3cnccn3)cc(-n3ncnc3C(C)C)c2)c(F)c1 (stereo not drawn) [Compound 36, 2′-Fluoro-5-(5-isopropyl-[1,2,4]triazol-1-yl)-4′-methyl-biphenyl-3-carboxylic acid (1-pyrazin-2-yl-ethyl)-amide]
